Test results from patent US20060148763A1, “Compounds and methods for regulating triglyceride levels” (priority 2005, published 2006).

Tested on: serum triglyceride levels
Experiment: Rabbit hypercholesteremic model (2% cholesterol diet, 7 weeks): serum triglycerides
Format: in vivo, Male New Zealand white rabbits
Conditions: hypercholesterol diet, n = 5, P5P 10 mg/kg/day, simvastatin 5 mg/kg/day oral
Experimental: The anti-atherogenic effects of P5P alone and in combination with simvastatin in a rabbit hypercholesteremic model were determined. The study compared the effects of P5P and simvastatin alone and in combination on atherosclerotic lesion formation, lipid profile (total cholesterol, LDL, HDL, triglycerides and oxidized LDL), homocysteine levels and various markers of inflammation (CRP, IL-1β, IL-6, IFN-γ and TNF-α).
Animals—Male New Zealand white rabbits 2.0-3.0 kg.
Animal Feed—The normocholesterol diet is Co-op Complete Rabbit Feed manufactured by Federated Co-operatives Limited (Saskatchewan). The 2% cholesterol diet is Test Diet 0009459 MRab/2% Chol 3/16 manufactured by Purina Mills (USA).
The rabbits were fed the normocholesterol and 2% cholesterol diet ad libitum. All animals received a timothy cube after blood sampling. […]
Group 3: Hypercholesterol diet+P5P 10 mg/kg/day
Group 4: Hypercholesterol diet+simvastatin 5 mg/kg/day
Group 5: Hypercholesterol diet+P5P 10 mg/kg/day+simvastatin 5 mg/kg/day
The rabbits were fed a normocholesterol or hypercholesterol diet for a total of 7 weeks. The normocholesterol rabbits were treated once per day with 1 ml of ethanol and 5 ml of RO water via a nasogastric tube. The hypercholesterol animals were treated once per day with either P5P (10 mg/kg), simvastatin (5 mg/kg) or a combination of P5P and simvastatin (P5P 10 mg/kg; simvastatin 5 mg/kg) via a nasogastric tube. The P5P was dissolved in 5 ml of 0.05 N NaOH so that the pH of the solution is approximately 7. The simvastatin was dissolved in 1 ml of anhydrous ethanol.
Five ml of blood was collected from the marginal ear vein of the rabbits at 0, 2, 4 and 6 weeks. Prior to blood collection the animals were sedated with 1 mg/kg of acepromazine. Following collection, the serum was separated. The serum is aliquoted (500 μl) and frozen at −80° C. until used for the assaying various lipids (total cholesterol, LDL, HDL, triglycerides, oxidized LDL) and cytokines (CRP, IL-1β, IL-6, IFN-γ and TNF-α).
At 7 weeks, the animals were anesthetized and 10 ml of blood was collected. Then the animals were euthanized, and the heart and thoracic aorta removed. The hearts and aortas were frozen in liquid nitrogen or an ethanol dry ice bath and stored at −80° C. until analyzed.
Test Articles—P5P (pyridoxal 5′-phosphate monohydrate) was purchased from Sigma (P82870). Simvastatin is obtained from ACIC Fine Chemicals Inc. Two test compound vials were provided for each animal for each day. The first vial (small) was diluted in 1 ml of anhydrous ethanol. The second vial was diluted in either 5 ml of RO water or 5 ml of 0.05 N NaOH. The diluent for each vial was clearly marked on the vial. The test solutions were prepared fresh each day just before they were administered to the animals. The stock P5P was stored in a refrigerator at 4° C. under low light conditions. The simvastatin was stored following the manufacture recommendations. The individual test vials were stored in a refrigerator at 4° C. under low light conditions.
Test Article(s) Dose, Route of Administration and Duration—The rabbits were treated orally with the drugs, once per day for a total of 7 weeks. The contents of vial one (small; 1 ml) were given to the animals first, followed by the contents of vial 2 (large; 5 ml). The test compound treatments were followed by a 5 ml RO water chaser.

Structure (SMILES): CCC(C)(C)C(=O)O[C@H]1C[C@@H](C)C=C2C=C[C@H](C)[C@H](CC[C@@H]3C[C@@H](O)CC(=O)O3)[C@H]21 [Simvastatin, simvastatin, reference compound]
- Triglycerides, Week 2: 0.986 mmol/L
- Triglycerides, Week 4: 1.588 mmol/L
- Triglycerides, Week 6: 2.158 mmol/L
- Triglycerides, Week 7 (end of study): 1.766 mmol/L
- Triglycerides, Week 0 (start of study): 0.956 mmol/L
